The values below come from the supplement of paper PMC10307832.

What all share (assay): relative viability (nuclei count vs DMSO), 5 days (fraction); higher = more cells survive
Compound in one test: C=CCc1cccc(/C=N/NC(=O)CN2CCN(Cc3ccccc3)CC2)c1O [PAC-1]
Put shortly: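 A plate was accepted only when its control CV was below 25% and the cells had doubled at least once. Viability is defined from nuclear counts as treated wells divided by vehicle wells, with the median taken across plates. That median covers lung cancer cell lines grown in 1536-well plates, dosed by pinning at five √10-spaced library-drug concentrations, and counted in MetaXpress from 4× Hoechst images after 5 days.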

Compound in the test “Ibrutinib + Alpelisib”: C=CC(=O)N1CCC[C@@H](n2nc(-c3ccc(Oc4ccccc4)cc3)c3c(N)ncnc32)C1 [Ibrutinib] + Cc1nc(NC(=O)N2CCC[C@H]2C(N)=O)sc1-c1ccnc(C(C)(C)C(F)(F)F)c1 [Alpelisib] (partner 2 µM)
The gist of the method: (§1)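 Medians of duplicate plates are given as relative viability. That measure is the nuclei count in treated wells divided by the count in vehicle wells. Counts were taken on 4× images of lung cancer cell lines in 1536-well plates, 5 days after pin-tool dosing the day after seeding with one drug alone or a fixed anchor-drug dose plus five library-drug doses (not always all listed) in √10 steps.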

Compound in the test “BMX-IN-1 + Trametinib”: C=CC(=O)Nc1cc(-n2c(=O)ccc3cnc4ccc(-c5ccc(NS(C)(=O)=O)cc5)cc4c32)ccc1C [BMX-IN-1] + CC(=O)Nc1cccc(-n2c(=O)n(C3CC3)c(=O)c3c(Nc4ccc(I)cc4F)n(C)c(=O)c(C)c32)c1 [Trametinib] (partner 0.02 µM)
The gist of the method:
as §1

Compound in the test “BMX-IN-1 + Lapatinib”: C=CC(=O)Nc1cc(-n2c(=O)ccc3cnc4ccc(-c5ccc(NS(C)(=O)=O)cc5)cc4c32)ccc1C [BMX-IN-1] + CS(=O)(=O)CCNCc1ccc(-c2ccc3ncnc(Nc4ccc(OCc5cccc(F)c5)c(Cl)c4)c3c2)o1 [Lapatinib] (partner 2 µM)
Put shortly:
as §1

In the case of NCI-H3122, the relative viability was determined as 0.991 with PAC-1 (0.02 µM); 0.989 in the test with PAC-1 (0.06325 µM); 0.965 in the test with PAC-1 (0.2 µM); 0.965 with PAC-1 (2 µM); 0.686 in the test with Ibrutinib + Alpelisib (first compound 0.005 µM); 0.743 with Ibrutinib + Alpelisib (first compound 0.01581 µM). For the same cell line, the relative viability in the test with Ibrutinib + Alpelisib (first compound 0.05 µM) stood at 0.873; with Ibrutinib + Alpelisib (first compound 0.1581 µM), 0.583; in the test with Ibrutinib + Alpelisib (first compound 0.5 µM) it was 0.711; with BMX-IN-1 + Trametinib (first compound 0.02 µM) it was 0.228; in the test with BMX-IN-1 + Trametinib (first compound 0.2 µM), 0.253; in the test with BMX-IN-1 + Trametinib (first compound 0.6325 µM) it was 0.238. Further, the relative viability is 0.272 in the test with BMX-IN-1 + Trametinib (first compound 2 µM); 1.1 with BMX-IN-1 + Lapatinib (first compound 0.02 µM); 1.08 with BMX-IN-1 + Lapatinib (first compound 0.2 µM); 0.988 with BMX-IN-1 + Lapatinib (first compound 0.6325 µM); 1.05 with BMX-IN-1 + Lapatinib (first compound 2 µM).
